ChEMBL document CHEMBL1126970, “Development of 1,4-benzodiazepine cholecystokinin type B antagonists” (J Med Chem, 1993)

target: T1, Cholecystokinin receptor type A (Rattus norvegicus, UniProt P30551); experiment: Inhibition of binding of [125I]CCK-8 to cholecystokinin type A receptor in rat pancreatic tissue; conditions: not given
T1 sequence (P30551 whole entry): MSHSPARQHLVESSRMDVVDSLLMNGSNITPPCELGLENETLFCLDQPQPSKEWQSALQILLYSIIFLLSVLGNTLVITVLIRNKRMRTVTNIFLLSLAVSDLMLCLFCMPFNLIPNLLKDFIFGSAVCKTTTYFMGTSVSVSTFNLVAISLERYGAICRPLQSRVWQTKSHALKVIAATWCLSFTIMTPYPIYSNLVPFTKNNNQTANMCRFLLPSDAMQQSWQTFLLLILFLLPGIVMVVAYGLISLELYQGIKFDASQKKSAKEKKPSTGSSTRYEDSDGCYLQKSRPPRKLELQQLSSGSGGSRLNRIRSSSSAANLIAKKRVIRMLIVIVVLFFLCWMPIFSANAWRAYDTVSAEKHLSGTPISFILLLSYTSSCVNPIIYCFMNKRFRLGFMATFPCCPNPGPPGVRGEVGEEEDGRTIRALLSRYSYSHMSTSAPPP

Row | SMILES | IC50
1 | CCOC(=O)CCN1C(=O)C(NC(=O)Nc2cccc(OC)c2)N=C(c2ccccc2)c2ccccc21 (racemic) | 340 nM
2 | CCN(CC)C(=O)CN1C(=O)C(NC(=O)Nc2cccc(OC)c2)N=C(c2ccccc2)c2ccccc21 (racemic) | 120 nM
3 | CN1C(=O)C(NC(=O)Nc2cccc(CC(=O)O)c2)N=C(c2ccccc2)c2ccccc21 (stereo unspecified) | 61 nM
4 | Cc1cccc(NC(=O)NC2N=C(c3ccncc3)c3ccccc3N(C)C2=O)c1 (racemic) | 390 nM
5 | Cc1cccc(NC(=O)NC2N=C(c3ccccc3)c3ccncc3N(C)C2=O)c1 (racemic) | 144 nM
6 | CN1C(=O)[C@H](NC(=O)Nc2cccc(O)c2)N=C(c2ccccc2)c2ccccc21 | 60 nM
7 | CN1C(=O)[C@H](NC(=O)Nc2cccc(N)c2)N=C(c2ccccc2)c2ccccc21 | 4330 nM
8 | CN1C(=O)C(NC(=O)Nc2ccccn2)N=C(c2ccccc2)c2ccccc21 (racemic) | 447 nM
9 | Cc1cccc(NC(=O)NC2N=C(c3ccccc3)c3ccccc3N(CC(=O)ON3CCC[C@@H]3C(=O)O)C2=O)c1 (mixture of isomers) | 20000 nM
10 | Cc1cccc(NC(=O)NC2N=C(c3ccccc3)c3ccccc3N(CC(=O)O)C2=O)c1 (racemic) | 7.6 nM
11 | Cc1cccc(NC(=O)NC2N=C(c3ccccc3)c3ccccc3N(CC(=O)N3CC[N+](C)(C)CC3)C2=O)c1 (racemic) | 6200 nM
12 | CCN(CC)C(=O)CN1C(=O)C(NC(=O)Nc2ccccc2Cl)N=C(c2ccccc2)c2ccccc21 (racemic) | 200 nM
13 | CCN(CC)CC(=O)OCCN1C(=O)C(NC(=O)Nc2cccc(C)c2)N=C(c2ccccc2)c2ccccc21 (racemic) | 190 nM
14 | CCOC(=O)CN1C(=O)C(NC(=O)N[C@@H](C)c2ccccc2)N=C(c2ccccc2)c2ccccc21 (mixture of isomers) | 4800 nM
15 | CN1C(=O)C(NC(=O)Nc2ccc(N)nc2)N=C(c2ccccc2)c2ccccc21 (stereo unspecified) | 3000 nM
16 | Cc1cccc(NC(=O)NC2N=C(c3ccccc3)c3ccccc3N(CC(=O)N3CCN(C)CC3)C2=O)c1 (racemic) | 760 nM
17 | Cc1cccc(NC(=O)NC2N=C(c3ccccc3)c3ccccc3N(CCN(C)C)C2=O)c1 (racemic) | 1890 nM
18 | CN1C(=O)C(NC(=O)Nc2ccncc2)N=C(c2ccccc2)c2ccccc21 (racemic) | 1510 nM
19 | CN1C(=O)[C@H](NC(=O)Nc2ccc(Cl)cc2)N=C(c2ccccc2)c2ccccc21 | 2200 nM
20 | CN1C(=O)C(NC(N)=O)N=C(c2ccccc2)c2ccccc21 (racemic) | 55000 nM
21 | Cc1cccc(NC(=O)NC2N=C(c3ccccc3)c3ccccc3N(CCOC(=O)CCC(=O)O)C2=O)c1 (racemic) | 37 nM
22 | CN1C(=O)C(NC(=O)Nc2ccc3ncccc3c2)N=C(c2ccccc2)c2ccccc21 (racemic) | 310 nM
23 | COC(=O)Cc1cccc(NC(=O)NC2N=C(c3ccccc3)c3ccccc3N(C)C2=O)c1 (stereo unspecified) | 2100 nM
24 | CN1C(=O)[C@H](NC(=O)Nc2cccc(CN)c2)N=C(c2ccccc2)c2ccccc21 | 160 nM
25 | CCN(CC)C(=O)C(C)N1C(=O)C(NC(=O)Nc2ccc(Cl)cc2)N=C(c2ccccc2)c2ccccc21 (racemic) | 410 nM

organism: Cavia porcellus; experiment: Selectivity ratio between CCK-B and CCK-A receptor; parameters: reference not given here; conditions: not given

Row | SMILES | Selectivity ratio
26 | CCOC(=O)CCN1C(=O)C(NC(=O)Nc2cccc(OC)c2)N=C(c2ccccc2)c2ccccc21 (racemic) | 340
27 | CCN(CC)C(=O)CN1C(=O)C(NC(=O)Nc2cccc(OC)c2)N=C(c2ccccc2)c2ccccc21 (racemic) | 545
28 | CN1C(=O)C(NC(=O)Nc2cccc(CC(=O)O)c2)N=C(c2ccccc2)c2ccccc21 (stereo unspecified) | 12
29 | Cc1cccc(NC(=O)NC2N=C(c3ccncc3)c3ccccc3N(C)C2=O)c1 (racemic) | 7.5
30 | Cc1cccc(NC(=O)NC2N=C(c3ccccc3)c3ccncc3N(C)C2=O)c1 (racemic) | < 0.01
31 | CN1C(=O)[C@H](NC(=O)Nc2cccc(O)c2)N=C(c2ccccc2)c2ccccc21 | 1
32 | CN1C(=O)[C@H](NC(=O)Nc2cccc(N)c2)N=C(c2ccccc2)c2ccccc21 | 131
33 | CN1C(=O)C(NC(=O)Nc2ccccn2)N=C(c2ccccc2)c2ccccc21 (racemic) | 1.3
34 | Cc1cccc(NC(=O)NC2N=C(c3ccccc3)c3ccccc3N(CC(=O)ON3CCC[C@@H]3C(=O)O)C2=O)c1 (mixture of isomers) | 15
35 | Cc1cccc(NC(=O)NC2N=C(c3ccccc3)c3ccccc3N(CC(=O)O)C2=O)c1 (racemic) | 0.02
36 | Cc1cccc(NC(=O)NC2N=C(c3ccccc3)c3ccccc3N(CC(=O)N3CC[N+](C)(C)CC3)C2=O)c1 (racemic) | 107
37 | CCN(CC)C(=O)CN1C(=O)C(NC(=O)Nc2ccccc2Cl)N=C(c2ccccc2)c2ccccc21 (racemic) | 53
38 | CCN(CC)CC(=O)OCCN1C(=O)C(NC(=O)Nc2cccc(C)c2)N=C(c2ccccc2)c2ccccc21 (racemic) | 34
39 | CCOC(=O)CN1C(=O)C(NC(=O)N[C@@H](C)c2ccccc2)N=C(c2ccccc2)c2ccccc21 (mixture of isomers) | < 48
40 | CN1C(=O)C(NC(=O)Nc2ccc(N)nc2)N=C(c2ccccc2)c2ccccc21 (stereo unspecified) | 6
41 | Cc1cccc(NC(=O)NC2N=C(c3ccccc3)c3ccccc3N(CC(=O)N3CCN(C)CC3)C2=O)c1 (racemic) | 217
42 | Cc1cccc(NC(=O)NC2N=C(c3ccccc3)c3ccccc3N(CCN(C)C)C2=O)c1 (racemic) | 73
43 | CN1C(=O)C(NC(=O)Nc2ccncc2)N=C(c2ccccc2)c2ccccc21 (racemic) | 1.4
44 | CN1C(=O)[C@H](NC(=O)Nc2ccc(Cl)cc2)N=C(c2ccccc2)c2ccccc21 | 112
45 | CN1C(=O)C(NC(N)=O)N=C(c2ccccc2)c2ccccc21 (racemic) | > 0.5
46 | Cc1cccc(NC(=O)NC2N=C(c3ccccc3)c3ccccc3N(CCOC(=O)CCC(=O)O)C2=O)c1 (racemic) | 5
47 | CN1C(=O)C(NC(=O)Nc2ccc3ncccc3c2)N=C(c2ccccc2)c2ccccc21 (racemic) | 6
48 | COC(=O)Cc1cccc(NC(=O)NC2N=C(c3ccccc3)c3ccccc3N(C)C2=O)c1 (stereo unspecified) | 64
49 | CN1C(=O)[C@H](NC(=O)Nc2cccc(CN)c2)N=C(c2ccccc2)c2ccccc21 | 0.22
50 | CCN(CC)C(=O)C(C)N1C(=O)C(NC(=O)Nc2ccc(Cl)cc2)N=C(c2ccccc2)c2ccccc21 (racemic) | 19

tested on: not listed separately; experiment: Bioavailability in rat after 30 minutes at an oral dose of 2.5 mg/kg; assay type: ADME, organism-based; conditions: plasma

Row | SMILES | concentration at 0.5 h
51 | Cc1cccc(NC(=O)NC2N=C(c3ccccc3)c3ccccc3N(CCN(C)C)C2=O)c1 (racemic) | 75 ng/mL
